One molecule from patent US9840483B2, “Radiomitigating pharmaceutical formulations” (The Regents of the University of California, priority 2013, dated 2017) can be followed below.

The subject of assay [1] is Til-1 murine lymphocyte cells. Put plainly: Mitigation of radiation-induced apoptosis in vitro: viability of irradiated Til-1 cells (ATPlite) screen. Format: cell-based. Conditions: Mus musculus, light or radiation study, added 1 hour after 2 Gy, viability 24 h after radiation, relative to control irradiated value (100%), read-out: In Vitro (Mitigation cell viability %). The method, then: The ability of compounds from Example 1 to mitigate radiation-induced apoptosis in vitro relative to control values (100%) is shown in FIG. 1. Briefly, 100,000 small-molecules were screened at 10 μM final concentration in 1% dimethylsulfoxide (DMSO) using the viability of a murine lymphocyte line as a readout (Mitigation cell viability %). Ten thousand Til-1 murine lymphocyte cells were dispensed into each well of 384-well plates using a Multidrop 384 (Thermo Scientific, Waltham, Mass.) The Til-1 cells were irradiated at the dose of 2 Gy. After 1 hour, the small-molecules were added. Twenty-four hours after the radiation, cell viability was assayed by luminesce-based measurement of ATP production (ATPlite, Perkin-Elmer, Waltham, Mass.) with a SpectraMax M5 microplate reader (Molecular Devices, Sunnyvale, Calif.). The Z′ factor for the assay was >0.5. See Zhang, J. H., Chung, T. D., Oldenburg, K. R. “A Simple Statistical Parameter for Use in Evaluation and Validation of High Throughput Screening Assays,” J Biomol Screen 4:67, 1999. A positive readout was >130% of the control irradiated value.

The subject of assay [2] is C3Hf/Kam and C57B16/J mice. Put plainly: Animal Whole Body Irradiation (WBI) assay, mitigation of lethality. Format: in vivo. The method, then: Briefly, Animal Whole Body Irradiation (WBI) Assays were conducted with C3Hf/Kam and C57B16/J mice. The mice were bred and maintained in a strict gnotobiotic environment in the American Association of Laboratory Animal Care-Accredited Animal Facilities of Department of Radiation Oncology, UCLA. The Animal Care and Use Committee approved all experiments, which were performed in accordance with all local and national guidelines for the care and use of animals. Mice, 9-12 weeks old, were given WBI using a Gamma cell 40 irradiator (Cs137 source; Atomic Energy of Canada, Ltd.) at a dose rate of […]. Mice were monitored for at least 30 days and defined criteria for humane euthanasia was used as an endpoint.
Compounds were typically dissolved in 15 μL DMSO and suspended in 1 mL of 1% Cremphor EL in water for administration in 0.2 mL volumes. […] All mice, including controls, received the same diluent as the experimental groups. The chosen compounds were administered to the mice 5 times at 24 h intervals, starting 24 hours after WBI at LD70/30 (7.725 Gy for the C3H strain) doses. Similar data were obtained with a single dose and at 48 hours after radiation exposure in both mouse strains. Both subcutaneous and oral routes were effective. The compounds provided greatly elevated animals survival level as compared to control group.
Dose response experiments were executed in a manner similar to the WBI Assay described in Example 3. […] Both Compound 2 (53555.12) and Compound 3 (5346360) were effective in C57Bl/6 female mice in this case mitigating against LD70/30 doses of 8.509 Gy due to the relative radioresistance of this strain relative to C3Hs. […] When given orally by gavage, Compound 2 (535551.2) in 5 daily doses starting at 24 hours post-WBI was effective at 5 mg/kg in both C3H and C57Bl/6 strains, but not at 25 mg/kg.
Probit analyses of the effect of varying the radiation dose with Compound 2 (5355512) (5 mg/kg), and Compound 3 (5346360) (5 mg/kg), or 5 (5116319) (75 mg/kg) given subcutaneously for 5 days starting 24 hours after WBI, is shown in FIG. 6, with 95% confidence limits shown for LD50 values. The dose-response curves are steep with the dose modifying factors varying with the level of effect and drug, but were in the range 1.04-1.09. Such factors have to be considered against the level of the control and the reason for lethality. In this case, hematological insufficiency and not infection is the cause of death and as a result the radioresistance of the C3H strain is relatively high.
Compounds P1, P2, and P3, analogs of Compound 2 (5355512), were synthesized according to standard protocols. […] The analogs were injected subcutaneously 5 times over 5 clays at 5 mg/kg. Compound P2 elicited 100% survival after 30 days.

The subject of the next assay is TNF-α production. Put plainly: TNF-α production by LPS-stimulated peritoneal macrophages (ELISA). Format: cell-based, murine. The method, then: NPSPs were tested for their anti-inflammatory ability using murine macrophages. […] Briefly, peritoneal macrophages (PMs) were induced by intraperitoneal, injection of 150 μg MIS416 (Innate Immunotherapeutics, NZ) and harvested on day 4 by peritoneal wash out with PBS. Culture supernatants were harvested at 24 hrs and cytokines tested by ELISA (BD Biosciences, SD).

In the next assay the test system is TNF-α mRNA. Put plainly: Cytokine mRNA expression in LPS-stimulated bone marrow-derived macrophages (qPCR). Format: cell-based, murine. Conditions: added to bone marrow-derived macrophages 1 hr after LPS, RT-PCR. On the procedure:
Additionally, bone marrow-derived macrophages (BMDMs) were derived by 7 days culture of marrow cells in medium containing 10% FBS and CSF-1 conditioned medium. The serum concentration was reduced to 2% FBS 16 h before stimulation with LPS for 30 min, treatment with drug and incubation for another 3.5 h (4 h total with LPS). Total cellular RNA was isolated by trizol and cDNA synthesized using iScript from BioRad. Gene expression was measured by qPCR and analyzed using the standard curve method, normalized to L32.

Assay [3] relates to endogenous colony forming units in the spleens. The assay can be described thus: Endogenous colony forming units in spleens after WBI. Conditions: for Average endogenous CFU per spleen / Total endogenous CFU in spleens: 10 days after WBI at 6.5 Gy, 7.0 Gy, and 7.5 Gy. Format: in vivo, mice. The source says: For example, Compound 2 (5355512) increased the total endogenous CFU in spleens and average endogenous CFU per spleen, at 10 days after whole body irradiation (WBI) at varying doses (e.g. 6.5 Gy, 7.0 Gy, and 7.5 Gy). (See FIG. 13).

The test system of a further assay is C57Bl/6 mice. The assay can be described thus: Localized abdominal irradiation survival. Format: in vivo. Conditions: 16 and 18 Gy abdominally.
The next assay concerns C3H mice and C57 mice. Put plainly: Local thoracic irradiation, radiation pneumonitis and fibrosis. Format: in vivo. Conditions: local thoracic irradiation 14 and 18 Gy.

As to `O=[N+]([O-])c1ccc(S(=O)(=O)N2CCN(c3ccccc3)CC2)cc1` [Compound 2, 1-[(4-nitrobenzene)sulfonyl]-4-phenylpiperazine], in assay [1], the viability at 10 µM amounted to 182%. For the same molecule, the “Mitigation of WBI lethality at 5 mg/kg” value in assay [2] (5 mg/kg injected subcutaneously) is “effective”. Also, in assay [2] (C3H male mice, compared with 1, 2, 10, 40, or 75 mg/kg), the “Most effective dose in dose response” value was determined as 5 mg/kg. In addition, in assay [2] (C57Bl/6 female mice, LD70/30 dose 8.509 Gy), the “Mitigation of WBI lethality in C57Bl/6 female mice” value is recorded as “effective”. Further, the “Survivors at day 30” value in assay [2] (lowest dosage 5 mg/kg subcutaneously, superior to 40 and 75 mg/kg) is recorded as 100%. The “Mitigation of WBI lethality, oral gavage 5 mg/kg” value in assay [2] (orally by gavage, 5 daily doses starting 24 hours post-WBI, 5 mg/kg, C3H and C57Bl/6 strains) is “effective”. Moreover, the “Mitigation of WBI lethality, oral gavage 25 mg/kg” value in assay [2] (orally by gavage, 5 daily doses starting 24 hours post-WBI, 25 mg/kg, C3H and C57Bl/6 strains) is on record as “not”. Also, the “Mitigation of WBI lethality, single dose at 48 hours” value in assay [2] (single dose given 48 hours after WBI) is “Some activity was retained”. In assay [2] (single dose given 72 hours after WBI), the “Mitigation of WBI lethality, single dose at 72 hours” value is recorded as “not”. Also, the “Effect of increasing the single dose” value in assay [2] (single dose increased to 25 mg/kg, 24 hours after WBI) is “did not improve efficacy”. Also, in assay [2] (single dose of 5 mg/kg given 24 hours after WBI), the “Mitigation of WBI lethality, single dose” value is reported as “effective”. Further, the TNF-α production result in the assay with TNF-α production (added to stimulated peritoneal macrophages 1 hr after LPS, supernatants at 24 hrs, ELISA) is “inhibit TNF-α production”. Further, in the assay on TNF-α production (murine macrophages), the “Anti-inflammatory activity: LPS-induced production of tumor necrosis factor and other inflammatory cytokines” value is “showed anti-inflammatory activity”. For the same molecule, the “Expression of TNF-α mRNA and other cytokines” value with TNF-α mRNA was “inhibit expression of TNF-α mRNA, and other cytokines”. In addition, in assay [3], the “Average endogenous CFU per spleen” value was “increased” and the “Total endogenous CFU in spleens” value is given as “increased”. Besides, in assay [3] (listed as compound 2), the “Average endogenous CFU per spleen” value is “increases” and the “Total endogenous CFU in spleens” value was “increases”. Further, the “Number of endogenous colony forming units in the spleens” value in assay [3] (mice that had received LD70/30 radiation doses) is listed as “increased”. Further, the “Mitigation of abdominal radiation” value in the assay on C57Bl/6 mice is given as “mitigation of abdominal radiation”. For the same molecule, the “Survival post thoracic radiation” value with C3H mice and C57 mice is “supported survival of C3H mice and C57 mice to 100 days”.
